Assays:
[1] = tested on: BRD7/9; experiment: concurrent DNA-based displacement screening, DNA-bromosporine probe; assay type: binding; conditions: screen of 1000 compounds, TargetMol Bioactive Compound Library
[2] = tested on: PB1-BD2, PB1-BD4, PB1-BD5, BRD7 and BRD9; experiment: concurrent screening against five bromodomain proteins; assay type: binding; conditions: five bromodomain proteins screened concurrently
[3] = molecular target: PB1-BD2/4/5; experiment: DNA-based ligand displacement assay, IC50 determination of hit compounds; assay type: binding
[4] = molecular target: T1, human DHFR (Homo sapiens, UniProt P00374); experiment: inhibition of human DHFR; assay type: biochemical
T1 sequence (P00374 1-187): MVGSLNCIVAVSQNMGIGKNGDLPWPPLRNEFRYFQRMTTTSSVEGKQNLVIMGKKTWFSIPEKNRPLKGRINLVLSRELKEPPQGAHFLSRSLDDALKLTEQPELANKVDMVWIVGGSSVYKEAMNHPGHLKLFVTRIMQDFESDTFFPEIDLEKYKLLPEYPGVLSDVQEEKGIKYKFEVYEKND

[5] = molecular target: HaloTag-eDHFR (Escherichia coli, UniProt P0ABQ4); experiment: DNA-based ligand displacement screen of LOPAC library with DNA-linked TMP probe; assay type: binding, E. coli; conditions: LOPAC1280 screen against HaloTag-eDHFR
Sequence of HaloTag-eDHFR (P0ABQ4 whole entry): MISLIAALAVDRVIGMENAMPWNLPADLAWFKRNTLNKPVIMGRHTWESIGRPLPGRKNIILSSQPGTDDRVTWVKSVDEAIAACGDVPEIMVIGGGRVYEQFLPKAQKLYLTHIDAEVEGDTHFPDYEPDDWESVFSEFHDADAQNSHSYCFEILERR

[6] = molecular target: E. coli dihydrofolate reductase (eDHFR) (Escherichia coli, UniProt P0ABQ4); experiment: inhibition assays of eDHFR; assay type: biochemical; conditions: eDHFR inhibition assay
Sequence of E. coli dihydrofolate reductase (eDHFR) (P0ABQ4 whole entry): as above

[7] = molecular target: eDHFR (Escherichia coli, UniProt P0ABQ4); experiment: FP assay, displacement of fluorescein-labeled methotrexate; assay type: binding, E. coli; conditions: displacement of fluorescein-labeled MTX from eDHFR
Sequence of eDHFR (P0ABQ4 whole entry): as above

| SMILES | displacement of DNA-bromosporine probe [1] | selectivity in concurrent screen [2] | binding to respective bromodomains (IC50 determination) [3] | inhibition of human DHFR [4] | recovery of DNA-linked probe [5] | Ki [6] | IC50 [7] |
| --- | --- | --- | --- | --- | --- | --- | --- |
| CN1C(=O)c2sccc2N(C)c2nc(Nc3ccc(S(N)(=O)=O)cc3)ncc21 [XMU-MP-1] | significantly displaced | selectivity towards BRD7/9 over PB1-BD2/4/5 | – | – | – | – | – |
| Cc1cc(C)c(Nc2ccnc(Nc3ccc(C#N)cc3)n2)c(C)c1 [dapivirine] | – | selectivity for PB1-BD4 | potent binding | – | – | – | – |
| CN(CCOc1ccc(C[C@H](Nc2ccccc2C(=O)c2ccccc2)C(=O)O)cc1)c1ccccn1 [GW1929] | – | – | – | modest inhibition | low recovery | 0.41 µM | 7.9 µM |

Source: paper PMC8748404 (Angewandte Chemie (International ed. in English), 2021)
